In patent US7745399B2, “Hsp70 peptide stimulating natural killer (NK) cell activity and uses thereof” (multimmune GmbH, priority 2000, dated 2010):
Read-outs that look alike come from different tables or passages of the source.

Key:
[1] = test system: NK cells; conditions: Table II, complete proteins; cited from earlier work
[2] = test system: NK cells; test: NK cell stimulation (3H thymidine uptake assays and 51Cr release assays); type: cell-based, human
Experimental: (§1) The proliferative capacity of NK and T cells against different Hsp70 peptides and Hsp70 protein (loc. sit) was determined in a standard ^3H thymidine uptake assay (22). Viable cells (5×10^4 cells/100 μl) were seeded in 96-well flat-bottom microtiter plates (Greiner Nuertingen, Germany) in supplemented RPMI-1640 medium containing 100 IU IL-2 and Hsp70 protein (10 μg/ml) or different amounts of Hsp70 peptides ranging from 0.02 up to 10 μg/ml. As an internal control the proliferation against IL-2 alone was measured in parallel. After a 24 or 48 hour incubation period the cells were pulsed with ^3H thymidine (1 μCi/well) and the total uptake was measured following an 18 hour incubation period at 37° C. in a liquid scintillation counter (Beckmann instruments, Munich, Germany).
The cytolytic activity of NK cells was monitored in a standard ^51Cr assay (23). Dilutions of the effector cells were incubated with ^51Cr-labeled (100 μCi of Na^51CrO4, NEN-Dupont, Boston, Mass.) tumor target cells (3×10^3 cells per well) in duplicates at a final volume of 200 μl RPMI-1640 medium supplemented with 10% FCS at 37° C. for 4 h in 96-well U-bottom plates (Greiner, Nuertingen, Germany). After the incubation period supernatants were collected and the radioactivity was counted in a γ-counter (Packard Instruments). The percentage of specific lysis was determined according to the equation: (experimental release−spontaneous release)/(maximum release−spontaneous release)×100. The percentage spontaneous release was always<15% for each target cell line.

[3] = test system: CX− tumor cells; test: 51Cr release assay (CML), cytolytic activity of stimulated NK cells against CX-; type: cell-based, human; conditions: NK cells stimulated 4 days with IL-2 100 IU/ml plus peptide 2 μg/ml
Experimental: (§2) Cytolytic activity of NK cells stimulated with IL-2 alone or with IL-2 plus the 14-mer peptide TKD or with IL-2 plus the 8-mer peptide NLL. Cytolytic activity of NK cells either stimulated with low dose IL-2 (100 IU/ml) alone or with IL-2 plus the 14-mer peptide TKD (2 μg/ml) or with IL-2 plus the 8-mer peptide NLL (2 μg/ml) for 4 days. As target cells ^51Cr labeled CX+ (FIG. 2a) and CX− (FIG. 2b) tumor cells, that differ with respect to their capability to express Hsp70 on the plasma membrane, were used. The results are expressed as the percentage of specific lysis at varying E:T ratios ranging from 2:1 up to 40:1. […]
(§3) The colon carcinoma sublines CX+ (>90% Hsp70 positive cells) and CX− (<20% Hsp70 positive cells) described in patent application EP-A2-084 300 5 and originally derived from CX2 colon carcinoma cells (Tumorzentrum Heidelberg, TZB 610005, Germany) that differ with respect to their capacity to express Hsp70 on their plasma membrane were cultured at 37° C., 5% CO2 in RPMI-1640 medium (Gibco, Eggenstein, Germany) supplemented with heat-inactivated 10% FCS (Gibco) and 2 mM L-glutamine and antibiotics (penicillin/streptomycin). […] All cell lines were free from mycoplasma contamination as determined by repeated testing using the 6-methylpurin desoxyribosid assay (Boehringer Mannheim, Germany).
(§4) The cytolytic activity of NK cells was monitored in a standard ^51Cr assay (23). […]

[4] = test system: NK cells; test: FACScan phenotypic characterization of stimulated NK cells; type: cell-based, human; conditions: NK cells stimulated with IL-2 plus peptide 2 μg/ml
Experimental: Cytolytic activity of NK cells stimulated with IL-2 alone or with IL-2 plus the 14-mer peptide TKD or with IL-2 plus the 8-mer peptide NLL. Cytolytic activity of NK cells either stimulated with low dose IL-2 (100 IU/ml) alone or with IL-2 plus the 14-mer peptide TKD (2 μg/ml) or with IL-2 plus the 8-mer peptide NLL (2 μg/ml) for 4 days. As target cells ^51Cr labeled CX+ (FIG. 2a) and CX− (FIG. 2b) tumor cells, that differ with respect to their capability to express Hsp70 on the plasma membrane, were used. The results are expressed as the percentage of specific lysis at varying E:T ratios ranging from 2:1 up to 40:1. The percentage spontaneous release for each tumor target cell line was less than 20%.
Directly fluorescein-conjugated mAb (CD3FITC/CD16/CD56^PE, Becton Dickinson, Heidelberg, Germany) were added to cell suspensions (0.1×10^6 cells), incubated for 20 min on ice, washed and analysed on a FACScan instrument (Becton Dickinson, Heidelberg, Germany). The percentage of positively stained cells was defined as the number of specifically stained, viable (propidium-iodide negative) cells minus the number of cells stained with an isotype matched control antibody on a FACScan instrument (Becton Dickinson, Heidelberg, Germany).

[5] = test system: T cells; test: 3H thymidine uptake assay, proliferative response of T cells; type: cell-based, human; conditions: peptides plus low dose IL-2 (100 IU/ml), any tested concentration
Experimental: (§5) Briefly, monocyte depleted peripheral blood lymphocytes (PBL) were isolated from buffy coats of healthy human volunteers (Multhoff et al., 1995a). NK cells were purified by adherence selection following a modified protocol of Vujanovic (1993). T cells remain in the supernatant cell population.
as §1

[6] = test system: NK cells; test: 3H thymidine uptake assay, proliferative response of NK cells; type: cell-based, human; conditions: IL-2 100 IU/ml plus peptide 0.02 up to 8 μg/ml
Experimental: Comparison of the proliferative response of NK cells against Hsp70 peptides. NK cells were stimulated either with IL-2 (100 IU/ml) alone or with IL-2 plus peptides NLL (8-mer, FIG. 1a), TKD (14-mer, FIG. 1b) and GIPP (13 mer, FIG. 1c) at concentrations 0.02, 0.2, 2, 4 and 8 μg/ml. As a positive control NK cells were stimulated with rHsp70 protein at a concentration of 10 μg/ml. The proliferative response of NK cells was measured 72 h after peptide incubation and an 18 h incubation period with ^3H thymidine (1 μCi/ml). In FIG. 1e stimulation with TKD in a more refined scale between 0.1 and 3 μg is shown. […] Values are given as the means of four independent experiments+/−SD.
as §5, §1

[7] = test system: CX+ tumor cells; test: 51Cr release assay (CML), cytolytic activity of stimulated NK cells against CX+; type: cell-based, human; conditions: NK cells stimulated 4 days with IL-2 100 IU/ml plus peptide 2 μg/ml, compared to IL-2 alone or IL-2 plus NLL
Experimental: as §2, §3, §4

[8] = test system: NK cells; conditions: cited from earlier work
[9] = Table III, peptides only, 3H thymidine uptake and 51Cr release assays

Hsc70 (complete protein): Hsc70 complete protein
NK cell stimulation [1]: no

EGERAMTKDNNLLGRFELSG (EGERAMTKDNNLLGRFELSG) [Hsp70 (peptide) 441-463, 20 mer peptide of Hsp70]
NK cell stimulation ([2]; Table II, peptides): yes

T K D N N L L G R F E L S G (TKDNNLLGRFELSG) [14-mer peptide, Hsp70 aa 450-463]
lysis of CX− tumor cells [3]: no significant differences | CD3 positive cells [4]: 6% | CD16/56 positive cells [4]: 79% | NK cell stimulation ([2]; Table II, peptides): yes | NK cell stimulation [2, 9]: yes | T cell growth [5]: none of the three peptides NLL, GIPP or TKD stimulates T cell growth | proliferative capacity of NK cells [6]: comparable immunostimulatory capacity like full length Hsp70 protein | lytic activity against Hsp70 expressing CX+ tumor cells [7]: significantly enhanced lytic activity

Hsp70hom (complete protein): testis specific member of the Hsp70 family, complete protein
NK cell stimulation [1]: yes

rHsp70: Human recombinant Hsp70 protein from StressGen (SPP-755)
optimal stimulatory dose ([8]; defined previously): 10 µg/mL | proliferative response of human NK cells ([8]; low dose IL-2 (100 IU/ml) plus protein, compared to IL-2 only): increase the proliferative response

T K D N N L L G R F E L T G (TKDNNLLGRFELTG) [HOM, peptide, Hsp70hom aa 450-463]
NK cell stimulation [2, 9]: low

A A D N K S L G Q F N L D G (AADNKSLGQFNLDG) [DNAK, peptide, Dnak aa 447-460]
NK cell stimulation [2, 9]: no

Dank (complete protein): DnaK complete protein
NK cell stimulation [1]: no

T K D N N L L G K F E L T G (TKDNNLLGKFELTG) [Hsc70, peptide, Hsc70 aa 450-463]
NK cell stimulation [2, 9]: no

T K D N N L L G R F E L (TKDNNLLGRFEL) [TKD12, peptide, Hsp70 aa 450-461]
NK cell stimulation [2, 9]: no

NLLGRFEL
lysis of CX− tumor cells [3]: no significant differences | CD3 positive cells [4]: 8% | CD16/56 positive cells [4]: 80% | NK cell stimulation ([2]; Table II, peptides): no | NK cell stimulation [2, 9]: no | T cell growth [5]: none of the three peptides NLL, GIPP or TKD stimulates T cell growth | proliferative capacity of NK cells [6]: did not stimulate

G E R A M T K D N N L L G R F E L S G (GERAMTKDNNLLGRFELSG) [Hsp70 445-463, peptide, Hsp70 aa 445-463]
NK cell stimulation [2, 9]: yes

NLLGRFELSGIPP [13-mer C-terminal extended peptide, Hsp70 aa 454-466]
NK cell stimulation ([2]; Table II, peptides): no | NK cell stimulation [2, 9]: no | T cell growth [5]: none of the three peptides NLL, GIPP or TKD stimulates T cell growth | proliferative capacity of NK cells [6]: did not stimulate
